Key:
Format in all cases: in vivo
[1] = tested on: barnyardgrass (Echinochloa crus-galli); experiment: Test A preemergence, directed soil spray, visual injury rating; settings: 0 is no effect, 100 is complete control
How it was run: (§1)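 Compounds in a surfactant-containing solvent were applied as a directed soil spray preemergence, or postemergence to plants 2-10 cm tall at the one- to two-leaf stage, in loam-sand blend. After about 10 d in the greenhouse, injury was rated visually against untreated controls on a 0-100 scale (100 = complete control).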

[2] = tested on: foxtail, giant (giant foxtail, Setaria faberii); experiment: as above; settings: 0 is no effect, 100 is complete control
How it was run: as §1

kochia (Kochia scoparia) [3] = experiment: as above; settings: 0 is no effect, 100 is complete control
How it was run: as §1

[4] = tested on: pigweed (Amaranthus retroflexus); experiment: as above; settings: 0 is no effect, 100 is complete control
How it was run: as §1

[5] = tested on: ragweed (common ragweed, Ambrosia elatior); experiment: as above; settings: 0 is no effect, 100 is complete control
How it was run: as §1

[6] = tested on: ryegrass, It. (Italian ryegrass, Lolium multiflorum); experiment: as above; settings: 0 is no effect, 100 is complete control
How it was run: as §1

[7] = tested on: barnyardgrass (Echinochloa crus-galli); experiment: Test B flooded paddy test, visual rating; settings: Flood, 250 g ai/ha, applied to paddy water, rated after 13 to 15 d
How it was run: (§2)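 Plants grown to the 2-leaf stage. At treatment, pots were flooded to 3 cm above the soil, compound was applied directly to the paddy water, and that depth was held throughout. After 13 to 15 d in the greenhouse, response was rated visually against controls on a 0 (no effect) to 100 (complete control) scale.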

[8] = tested on: ducksalad (Heteranthera limosa); experiment: Test B flooded paddy test, visual rating; settings: Flood, 250 g ai/ha, applied to paddy water, rated after 13 to 15 d
How it was run: as §2

rice (Oryza sativa) = experiment: Test B flooded paddy test, visual rating; settings: Flood, 250 g ai/ha, applied to paddy water, rated after 13 to 15 d
How it was run: as §2

[9] = tested on: sedge, umbrella (small-flower umbrella sedge, Cyperus difformis); experiment: Test B flooded paddy test, visual rating; settings: Flood, 250 g ai/ha, applied to paddy water, rated after 13 to 15 d
How it was run: as §2

[10] = tested on: barnyardgrass (Echinochloa crus-galli); experiment: Test A postemergence application, visual injury rating; settings: 0 to 100 scale, 0 no effect, 100 complete control
How it was run: as §1

[11] = tested on: blackgrass (Alopecurus myosuroides); experiment: as above; settings: 0 to 100 scale, 0 no effect, 100 complete control
How it was run: as §1

corn (Zea mays) = experiment: as above; settings: 0 to 100 scale, 0 no effect, 100 complete control
How it was run: as §1

[12] = tested on: foxtail, giant (giant foxtail, Setaria faberii); experiment: as above; settings: 0 to 100 scale, 0 no effect, 100 complete control
How it was run: as §1

[13] = tested on: galium (catchweed bedstraw, Galium aparine); experiment: as above; settings: 0 to 100 scale, 0 no effect, 100 complete control
How it was run: as §1

kochia (Kochia scoparia) [14] = experiment: as above; settings: 0 to 100 scale, 0 no effect, 100 complete control
How it was run: as §1

[15] = tested on: pigweed (Amaranthus retroflexus); experiment: as above; settings: 0 to 100 scale, 0 no effect, 100 complete control
How it was run: as §1

[16] = tested on: ragweed (common ragweed, Ambrosia elatior); experiment: as above; settings: 0 to 100 scale, 0 no effect, 100 complete control
How it was run: as §1

[17] = tested on: ryegrass, It. (Italian ryegrass, Lolium multiflorum); experiment: as above; settings: 0 to 100 scale, 0 no effect, 100 complete control
How it was run: as §1

[18] = tested on: wheat (Triticum aestivum); experiment: as above; settings: 0 to 100 scale, 0 no effect, 100 complete control
How it was run: as §1

CCc1sc2ncccc2c1-c1c(O)c(C)nn(C)c1=O [Compound 18]
Plant response rating (0 to 100 scale), Barnyardgrass ([1]; 125 g ai/ha): 0 | Plant response rating (0 to 100 scale), Barnyardgrass ([1]; 500 g ai/ha): 0 | Plant response rating (0 to 100 scale), Foxtail, Giant ([2]; 125 g ai/ha): 0 | Plant response rating (0 to 100 scale), Foxtail, Giant ([2]; 500 g ai/ha): 0 | Plant response rating (0 to 100 scale), Kochia (kochia (Kochia scoparia) [3]; 125 g ai/ha): 0 | Plant response rating (0 to 100 scale), Kochia (kochia (Kochia scoparia) [3]; 500 g ai/ha): 0 | Plant response rating (0 to 100 scale), Pigweed ([4]; 125 g ai/ha): 0 | Plant response rating (0 to 100 scale), Pigweed ([4]; 500 g ai/ha): 10 | Plant response rating (0 to 100 scale), Ragweed ([5]; 125 g ai/ha): 0 | Plant response rating (0 to 100 scale), Ragweed ([5]; 500 g ai/ha): 0 | Plant response rating (0 to 100 scale), Ryegrass, It. ([6]; 125 g ai/ha): 0 | Plant response rating (0 to 100 scale), Ryegrass, It. ([6]; 500 g ai/ha): 0 | Barnyardgrass plant response rating (0 to 100 scale, 0 is no effect, 100 is complete control) [7]: 0 | Ducksalad plant response rating (0 to 100 scale, 0 is no effect, 100 is complete control) [8]: 0 | Rice plant response rating (0 to 100 scale, 0 is no effect, 100 is complete control) (rice (Oryza sativa)): 0 | Sedge, Umbrella plant response rating (0 to 100 scale, 0 is no effect, 100 is complete control) [9]: 0 | Barnyardgrass plant response rating ([10]; 125 g ai/ha): 0 | Barnyardgrass plant response rating ([10]; 500 g ai/ha): 0 | Blackgrass plant response rating ([11]; 125 g ai/ha): 0 | Blackgrass plant response rating ([11]; 500 g ai/ha): 0 | Corn plant response rating (corn (Zea mays); 125 g ai/ha): 0 | Corn plant response rating (corn (Zea mays); 500 g ai/ha): 0 | Foxtail, Giant plant response rating ([12]; 125 g ai/ha): 0 | Foxtail, Giant plant response rating ([12]; 500 g ai/ha): 0 | Galium plant response rating ([13]; 125 g ai/ha): 0 | Galium plant response rating ([13]; 500 g ai/ha): 20 | Kochia plant response rating (kochia (Kochia scoparia) [14]; 125 g ai/ha): 0 | Kochia plant response rating (kochia (Kochia scoparia) [14]; 500 g ai/ha): 0 | Pigweed plant response rating ([15]; 125 g ai/ha): 0 | Pigweed plant response rating ([15]; 500 g ai/ha): 30 | Ragweed plant response rating ([16]; 125 g ai/ha): 0 | Ragweed plant response rating ([16]; 500 g ai/ha): 0 | Ryegrass, It. plant response rating ([17]; 125 g ai/ha): 0 | Ryegrass, It. plant response rating ([17]; 500 g ai/ha): 0 | Wheat plant response rating ([18]; 125 g ai/ha): 0 | Wheat plant response rating ([18]; 500 g ai/ha): 0

Cc1nn(C)c(=O)c(-c2cccc3sccc23)c1O [Compound 32]
Plant response rating (0 to 100 scale), Barnyardgrass ([1]; 125 g ai/ha): 20 | Plant response rating (0 to 100 scale), Barnyardgrass ([1]; 500 g ai/ha): 40 | Plant response rating (0 to 100 scale), Foxtail, Giant ([2]; 125 g ai/ha): 10 | Plant response rating (0 to 100 scale), Foxtail, Giant ([2]; 500 g ai/ha): 50 | Plant response rating (0 to 100 scale), Kochia (kochia (Kochia scoparia) [3]; 125 g ai/ha): 30 | Plant response rating (0 to 100 scale), Kochia (kochia (Kochia scoparia) [3]; 500 g ai/ha): 40 | Plant response rating (0 to 100 scale), Pigweed ([4]; 125 g ai/ha): 40 | Plant response rating (0 to 100 scale), Pigweed ([4]; 500 g ai/ha): 100 | Plant response rating (0 to 100 scale), Ragweed ([5]; 125 g ai/ha): 0 | Plant response rating (0 to 100 scale), Ragweed ([5]; 500 g ai/ha): 80 | Plant response rating (0 to 100 scale), Ryegrass, It. ([6]; 125 g ai/ha): 70 | Plant response rating (0 to 100 scale), Ryegrass, It. ([6]; 500 g ai/ha): 100 | Barnyardgrass plant response rating (0 to 100 scale, 0 is no effect, 100 is complete control) [7]: 0 | Ducksalad plant response rating (0 to 100 scale, 0 is no effect, 100 is complete control) [8]: 40 | Rice plant response rating (0 to 100 scale, 0 is no effect, 100 is complete control) (rice (Oryza sativa)): 0 | Sedge, Umbrella plant response rating (0 to 100 scale, 0 is no effect, 100 is complete control) [9]: 50 | Barnyardgrass plant response rating ([10]; 125 g ai/ha): 0 | Barnyardgrass plant response rating ([10]; 500 g ai/ha): 50 | Blackgrass plant response rating ([11]; 125 g ai/ha): 0 | Blackgrass plant response rating ([11]; 500 g ai/ha): 30 | Corn plant response rating (corn (Zea mays); 125 g ai/ha): 0 | Corn plant response rating (corn (Zea mays); 500 g ai/ha): 0 | Foxtail, Giant plant response rating ([12]; 125 g ai/ha): 0 | Foxtail, Giant plant response rating ([12]; 500 g ai/ha): 40 | Galium plant response rating ([13]; 125 g ai/ha): 40 | Galium plant response rating ([13]; 500 g ai/ha): 80 | Kochia plant response rating (kochia (Kochia scoparia) [14]; 125 g ai/ha): 20 | Kochia plant response rating (kochia (Kochia scoparia) [14]; 500 g ai/ha): 70 | Pigweed plant response rating ([15]; 125 g ai/ha): 30 | Pigweed plant response rating ([15]; 500 g ai/ha): 30 | Ragweed plant response rating ([16]; 125 g ai/ha): 0 | Ragweed plant response rating ([16]; 500 g ai/ha): 40 | Ryegrass, It. plant response rating ([17]; 125 g ai/ha): 70 | Ryegrass, It. plant response rating ([17]; 500 g ai/ha): 90 | Wheat plant response rating ([18]; 125 g ai/ha): 0 | Wheat plant response rating ([18]; 500 g ai/ha): 20

CC(=O)Oc1c(C)nn(C)c(=O)c1-c1ccc(Cl)c2ccsc12 [Compound 51]
Plant response rating (0 to 100 scale), Barnyardgrass ([1]; 31 g ai/ha): 0 | Plant response rating (0 to 100 scale), Barnyardgrass ([1]; 125 g ai/ha): 20 | Plant response rating (0 to 100 scale), Foxtail, Giant ([2]; 31 g ai/ha): 0 | Plant response rating (0 to 100 scale), Foxtail, Giant ([2]; 125 g ai/ha): 0 | Plant response rating (0 to 100 scale), Kochia (kochia (Kochia scoparia) [3]; 31 g ai/ha): 0 | Plant response rating (0 to 100 scale), Kochia (kochia (Kochia scoparia) [3]; 125 g ai/ha): 20 | Plant response rating (0 to 100 scale), Pigweed ([4]; 31 g ai/ha): 0 | Plant response rating (0 to 100 scale), Pigweed ([4]; 125 g ai/ha): 60 | Plant response rating (0 to 100 scale), Ragweed ([5]; 31 g ai/ha): 0 | Plant response rating (0 to 100 scale), Ragweed ([5]; 125 g ai/ha): 0 | Plant response rating (0 to 100 scale), Ryegrass, It. ([6]; 31 g ai/ha): 60 | Plant response rating (0 to 100 scale), Ryegrass, It. ([6]; 125 g ai/ha): 100 | Barnyardgrass plant response rating (0 to 100 scale, 0 is no effect, 100 is complete control) [7]: 0 | Ducksalad plant response rating (0 to 100 scale, 0 is no effect, 100 is complete control) [8]: 0 | Rice plant response rating (0 to 100 scale, 0 is no effect, 100 is complete control) (rice (Oryza sativa)): 0 | Sedge, Umbrella plant response rating (0 to 100 scale, 0 is no effect, 100 is complete control) [9]: 0 | Barnyardgrass plant response rating ([10]; 31 g ai/ha): 0 | Barnyardgrass plant response rating ([10]; 125 g ai/ha): 10 | Blackgrass plant response rating ([11]; 31 g ai/ha): 0 | Blackgrass plant response rating ([11]; 125 g ai/ha): 10 | Corn plant response rating (corn (Zea mays); 31 g ai/ha): 0 | Corn plant response rating (corn (Zea mays); 125 g ai/ha): 0 | Foxtail, Giant plant response rating ([12]; 31 g ai/ha): 0 | Foxtail, Giant plant response rating ([12]; 125 g ai/ha): 0 | Galium plant response rating ([13]; 31 g ai/ha): 100 | Galium plant response rating ([13]; 125 g ai/ha): 100 | Kochia plant response rating (kochia (Kochia scoparia) [14]; 31 g ai/ha): 70 | Kochia plant response rating (kochia (Kochia scoparia) [14]; 125 g ai/ha): 90 | Pigweed plant response rating ([15]; 31 g ai/ha): 50 | Pigweed plant response rating ([15]; 125 g ai/ha): 60 | Ragweed plant response rating ([16]; 31 g ai/ha): 0 | Ragweed plant response rating ([16]; 125 g ai/ha): 50 | Ryegrass, It. plant response rating ([17]; 31 g ai/ha): 70 | Ryegrass, It. plant response rating ([17]; 125 g ai/ha): 100 | Wheat plant response rating ([18]; 31 g ai/ha): 0 | Wheat plant response rating ([18]; 125 g ai/ha): 0

From patent publication US10750743B2, “Pyridazinone herbicides” (E.I. DU PONT DE NEMOURS AND COMPANY, priority 2015, dated 2020)
